Laboratory results: ChEMBL document CHEMBL1201862, “PubChem BioAssay data set” (2004)
The source made the active and inactive calls.

Assays:
[1] = target: T1, Heat shock factor protein 1 (Mus musculus, UniProt P38532); test: HSF1 potentiators in luciferase reporter cells, confirmation, cell-based, NIH3T3, luminescence, dose retest (AID 435004); type: functional;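 also: stress induced by proteasome inhibitor MG132 added 30 min after compound; luciferase reporter driven by HSF1 response element in NIH3T3 cells; actives raise luminescence as potentiators of the MG132 stress response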
T1 sequence (P38532 whole entry): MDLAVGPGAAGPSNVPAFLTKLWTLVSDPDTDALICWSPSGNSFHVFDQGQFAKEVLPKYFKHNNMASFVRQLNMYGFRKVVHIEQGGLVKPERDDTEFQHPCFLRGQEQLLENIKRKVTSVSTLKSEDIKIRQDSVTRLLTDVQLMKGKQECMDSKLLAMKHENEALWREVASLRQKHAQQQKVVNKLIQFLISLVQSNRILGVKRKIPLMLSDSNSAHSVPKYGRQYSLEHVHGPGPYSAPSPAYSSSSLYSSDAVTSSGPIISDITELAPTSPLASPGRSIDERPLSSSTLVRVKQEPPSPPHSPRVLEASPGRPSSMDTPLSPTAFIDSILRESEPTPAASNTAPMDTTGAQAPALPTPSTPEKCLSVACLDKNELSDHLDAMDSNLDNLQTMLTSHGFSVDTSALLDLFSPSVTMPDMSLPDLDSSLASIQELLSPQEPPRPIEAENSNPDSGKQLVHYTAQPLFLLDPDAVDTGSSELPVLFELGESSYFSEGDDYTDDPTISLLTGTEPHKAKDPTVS

[2] = target: T2, Protein RecA (Mycobacterium tuberculosis, UniProt P9WHJ3); test: Fluorescence Cell-Free Homogeneous Dose Retest to Identify Inhibitors of RecA-Intein Splicing Activity. [Related pubchem assays (depositor defined):AID2097, AID2223, AID489010, AID492950]; type: functional
T2 sequence (P9WHJ3 whole entry): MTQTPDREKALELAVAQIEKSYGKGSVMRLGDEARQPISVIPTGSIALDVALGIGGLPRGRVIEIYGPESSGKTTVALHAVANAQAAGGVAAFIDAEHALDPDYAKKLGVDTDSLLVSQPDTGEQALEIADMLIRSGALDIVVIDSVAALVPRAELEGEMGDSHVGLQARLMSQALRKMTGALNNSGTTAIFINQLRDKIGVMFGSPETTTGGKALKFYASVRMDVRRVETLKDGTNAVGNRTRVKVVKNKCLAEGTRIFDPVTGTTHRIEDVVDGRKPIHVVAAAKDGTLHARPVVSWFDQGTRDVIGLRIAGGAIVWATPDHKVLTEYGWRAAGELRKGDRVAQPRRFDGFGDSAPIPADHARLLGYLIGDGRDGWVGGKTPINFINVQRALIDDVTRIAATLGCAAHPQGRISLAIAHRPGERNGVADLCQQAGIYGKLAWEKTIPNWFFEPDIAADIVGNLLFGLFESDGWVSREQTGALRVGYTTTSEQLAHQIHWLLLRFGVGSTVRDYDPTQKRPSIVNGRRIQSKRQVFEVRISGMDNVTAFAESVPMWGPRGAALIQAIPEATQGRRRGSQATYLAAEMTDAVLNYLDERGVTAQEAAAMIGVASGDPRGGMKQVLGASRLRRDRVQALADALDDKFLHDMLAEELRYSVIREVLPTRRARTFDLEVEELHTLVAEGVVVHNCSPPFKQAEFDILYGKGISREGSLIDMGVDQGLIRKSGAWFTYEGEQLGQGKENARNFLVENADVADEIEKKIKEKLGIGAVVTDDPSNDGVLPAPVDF

[3] = target: T3, Replicative DNA helicase DnaB (Mycobacterium tuberculosis, UniProt P9WMR3); test: DnaB intein splicing inhibitors, dose response, biochemical, cell-free fluorescence (AID 449749); type: functional
T3 sequence (P9WMR3 whole entry): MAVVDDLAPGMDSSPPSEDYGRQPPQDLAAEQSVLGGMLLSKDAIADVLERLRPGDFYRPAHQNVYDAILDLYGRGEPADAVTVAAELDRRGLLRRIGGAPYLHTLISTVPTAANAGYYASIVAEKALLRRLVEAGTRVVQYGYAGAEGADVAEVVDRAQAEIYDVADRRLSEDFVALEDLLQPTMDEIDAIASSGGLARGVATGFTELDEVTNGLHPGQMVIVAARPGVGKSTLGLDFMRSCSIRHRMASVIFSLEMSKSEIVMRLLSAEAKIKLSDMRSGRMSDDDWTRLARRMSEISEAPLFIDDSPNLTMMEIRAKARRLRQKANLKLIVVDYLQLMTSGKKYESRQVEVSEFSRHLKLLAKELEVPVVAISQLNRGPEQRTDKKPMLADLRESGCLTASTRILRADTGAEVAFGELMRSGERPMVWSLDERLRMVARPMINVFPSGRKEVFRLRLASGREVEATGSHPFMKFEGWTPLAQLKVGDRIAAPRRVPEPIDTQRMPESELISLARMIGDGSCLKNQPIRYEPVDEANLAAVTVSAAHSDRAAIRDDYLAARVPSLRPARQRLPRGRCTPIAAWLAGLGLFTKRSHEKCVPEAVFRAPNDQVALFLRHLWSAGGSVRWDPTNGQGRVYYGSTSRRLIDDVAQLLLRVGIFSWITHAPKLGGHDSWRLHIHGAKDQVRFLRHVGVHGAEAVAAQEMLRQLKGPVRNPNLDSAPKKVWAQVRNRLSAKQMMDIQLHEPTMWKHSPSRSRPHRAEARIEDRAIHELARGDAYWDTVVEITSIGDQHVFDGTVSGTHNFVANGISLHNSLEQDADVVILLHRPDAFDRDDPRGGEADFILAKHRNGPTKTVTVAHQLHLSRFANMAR

[4] = target: G-protein coupled receptor 55 (Homo sapiens, UniProt Q9Y2T6); test: GPR55 antagonists blocking LPI-driven arrestin recruitment, primary screen, imaging, U2OS, beta-arrestin-GFP, LPI agonist (AID 2013); type: functional;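 also: antagonist potency measured as reduced agonist-driven arrestin aggregation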
[5] = target: T4, Sentrin-specific protease 8 (Homo sapiens, UniProt Q96LD8); type: functional;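 also: luminescence read-out of SENP8 inhibition, dose-response confirmation following an ultra-high-throughput screen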
T4 sequence (Q96LD8 whole entry): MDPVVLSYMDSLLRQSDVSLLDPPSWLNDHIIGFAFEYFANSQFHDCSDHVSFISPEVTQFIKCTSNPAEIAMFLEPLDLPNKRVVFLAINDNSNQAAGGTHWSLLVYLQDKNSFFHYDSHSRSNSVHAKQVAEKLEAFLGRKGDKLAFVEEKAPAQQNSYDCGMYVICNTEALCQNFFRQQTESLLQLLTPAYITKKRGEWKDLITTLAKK

[6] = tested on: HEK293; test: inhibitors of LMP1-driven NF-kB reporter, dose response, cell-based, HEK293, luciferase, cherry-pick (AID 588343); type: functional; settings: Homo sapiens
[7] = target: Nuclear receptor subfamily 0 group B member 1 (Homo sapiens, UniProt P51843); type: functional, cell-based;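 also: HEK293T cells transfected with SF-1 and DAX-1 plus StAR promoter luciferase reporter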
[8] = target: T5, Sentrin-specific protease 6 (Homo sapiens, UniProt Q9GZR1); type: functional;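 also: Luminescence-based dose-response confirmatory assay of SENP6 inhibition, following up an ultra-high-throughput screen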
T5 sequence (Q9GZR1 whole entry): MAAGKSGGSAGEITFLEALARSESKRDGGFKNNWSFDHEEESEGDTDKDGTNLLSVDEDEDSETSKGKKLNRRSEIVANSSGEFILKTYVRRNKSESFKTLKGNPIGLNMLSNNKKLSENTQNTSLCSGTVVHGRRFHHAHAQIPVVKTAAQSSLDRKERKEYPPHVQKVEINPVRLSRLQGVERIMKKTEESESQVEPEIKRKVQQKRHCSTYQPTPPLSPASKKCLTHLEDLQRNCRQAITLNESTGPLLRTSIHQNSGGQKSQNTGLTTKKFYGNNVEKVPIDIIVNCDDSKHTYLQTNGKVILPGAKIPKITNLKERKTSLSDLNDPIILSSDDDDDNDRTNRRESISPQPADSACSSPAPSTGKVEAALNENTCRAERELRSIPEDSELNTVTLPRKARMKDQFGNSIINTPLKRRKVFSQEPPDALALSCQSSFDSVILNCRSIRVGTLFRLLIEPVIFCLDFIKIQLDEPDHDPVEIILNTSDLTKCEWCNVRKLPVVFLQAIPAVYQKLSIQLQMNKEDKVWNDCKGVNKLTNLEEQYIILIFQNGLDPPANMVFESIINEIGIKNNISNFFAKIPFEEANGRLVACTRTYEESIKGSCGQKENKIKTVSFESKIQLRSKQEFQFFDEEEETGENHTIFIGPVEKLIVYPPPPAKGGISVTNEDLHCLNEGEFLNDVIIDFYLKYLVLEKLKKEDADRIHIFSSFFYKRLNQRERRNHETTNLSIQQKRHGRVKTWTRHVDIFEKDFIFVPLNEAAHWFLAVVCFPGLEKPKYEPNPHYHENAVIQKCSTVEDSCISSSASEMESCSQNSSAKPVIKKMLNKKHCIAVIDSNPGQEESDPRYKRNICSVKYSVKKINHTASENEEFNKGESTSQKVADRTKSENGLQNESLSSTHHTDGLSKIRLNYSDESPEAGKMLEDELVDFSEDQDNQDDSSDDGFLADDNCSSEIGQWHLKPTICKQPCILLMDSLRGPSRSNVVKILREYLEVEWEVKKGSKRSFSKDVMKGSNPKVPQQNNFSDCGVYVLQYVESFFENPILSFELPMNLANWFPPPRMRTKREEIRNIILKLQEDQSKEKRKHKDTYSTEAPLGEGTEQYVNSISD

[9] = target: T6, Caspase-3 (Homo sapiens, UniProt P42574); type: functional;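 also: Dose-response selectivity test against caspase-3 for candidate inhibitors of sentrin-specific proteases (SENPs)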
T6 sequence (P42574 whole entry): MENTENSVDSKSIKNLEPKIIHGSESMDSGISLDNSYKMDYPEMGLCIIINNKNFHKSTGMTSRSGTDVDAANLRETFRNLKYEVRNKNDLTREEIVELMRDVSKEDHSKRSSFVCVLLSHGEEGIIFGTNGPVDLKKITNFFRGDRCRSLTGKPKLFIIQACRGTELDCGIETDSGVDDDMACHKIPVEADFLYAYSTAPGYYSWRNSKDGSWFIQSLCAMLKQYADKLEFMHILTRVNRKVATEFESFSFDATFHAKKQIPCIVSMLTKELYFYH

[10] = target: T7, Sentrin-specific protease 7 (Homo sapiens, UniProt Q9BQF6); type: functional;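 also: Luminescence-based dose-response confirmation of ultra-high-throughput screening hits, measuring inhibition of SENP7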
T7 sequence (Q9BQF6 whole entry): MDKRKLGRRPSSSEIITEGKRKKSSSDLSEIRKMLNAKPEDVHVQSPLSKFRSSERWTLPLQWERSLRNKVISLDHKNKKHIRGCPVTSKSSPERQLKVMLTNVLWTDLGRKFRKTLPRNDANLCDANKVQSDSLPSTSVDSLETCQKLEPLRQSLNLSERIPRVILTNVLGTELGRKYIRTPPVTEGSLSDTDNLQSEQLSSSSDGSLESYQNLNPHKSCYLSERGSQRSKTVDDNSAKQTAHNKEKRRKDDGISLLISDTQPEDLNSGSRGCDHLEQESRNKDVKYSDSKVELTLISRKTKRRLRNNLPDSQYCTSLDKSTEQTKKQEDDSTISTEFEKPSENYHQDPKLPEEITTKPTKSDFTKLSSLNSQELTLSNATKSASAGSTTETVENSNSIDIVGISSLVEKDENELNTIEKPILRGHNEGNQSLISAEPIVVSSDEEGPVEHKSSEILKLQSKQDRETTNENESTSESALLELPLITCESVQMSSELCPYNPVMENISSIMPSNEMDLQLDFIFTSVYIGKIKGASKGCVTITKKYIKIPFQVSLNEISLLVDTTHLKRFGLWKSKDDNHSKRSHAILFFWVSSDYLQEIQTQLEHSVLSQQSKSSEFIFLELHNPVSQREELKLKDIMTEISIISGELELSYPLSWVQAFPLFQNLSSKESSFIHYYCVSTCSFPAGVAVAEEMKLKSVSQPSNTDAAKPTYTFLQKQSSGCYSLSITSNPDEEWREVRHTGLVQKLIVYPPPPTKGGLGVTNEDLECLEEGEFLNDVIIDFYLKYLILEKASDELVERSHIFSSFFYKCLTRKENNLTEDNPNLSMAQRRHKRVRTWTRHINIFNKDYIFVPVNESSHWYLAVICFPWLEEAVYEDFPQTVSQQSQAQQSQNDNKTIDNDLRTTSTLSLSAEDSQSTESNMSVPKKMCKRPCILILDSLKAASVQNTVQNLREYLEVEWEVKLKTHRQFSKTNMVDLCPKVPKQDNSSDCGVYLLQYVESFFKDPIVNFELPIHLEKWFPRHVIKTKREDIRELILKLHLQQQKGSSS

[11] = cells; type: functional, cell-based
[12] = target: T8, Tyrosine-protein phosphatase non-receptor type 7 (Homo sapiens, UniProt P35236); test: SAR analysis of chemical inhibitors of HePTP using a Fluorescent assay - Set 2. [Related pubchem assays (depositor defined):AID1059, AID1077, AID1661, AID2085, AID521]; type: functional
T8 sequence (P35236 whole entry): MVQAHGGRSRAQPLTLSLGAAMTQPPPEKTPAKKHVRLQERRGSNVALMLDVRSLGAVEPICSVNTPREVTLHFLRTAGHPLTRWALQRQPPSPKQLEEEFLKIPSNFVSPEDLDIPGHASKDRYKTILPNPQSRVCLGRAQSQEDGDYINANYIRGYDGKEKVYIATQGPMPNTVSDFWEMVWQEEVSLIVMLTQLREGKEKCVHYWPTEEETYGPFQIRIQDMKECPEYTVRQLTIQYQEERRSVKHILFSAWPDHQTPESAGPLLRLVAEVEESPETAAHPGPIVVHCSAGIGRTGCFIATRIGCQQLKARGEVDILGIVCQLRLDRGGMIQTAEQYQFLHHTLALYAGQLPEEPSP

[13] = target: Dual specificity protein phosphatase 3 (Homo sapiens, UniProt P51452); test: SAR VHR1 Fluorescent Assay for In Vitro dose response studies Set 2. [Related pubchem assays (depositor defined):AID1654, AID1661, AID1878]; type: functional
[14] = target: Glyceraldehyde-3-phosphate dehydrogenase (Homo sapiens, UniProt P04406)
[15] = target: Alkaline phosphatase, placental type (Homo sapiens, UniProt P05187); test: PLAP enzyme inhibitors, confirmation, biochemical, luminescence (AID 1512); type: functional
Alkaline phosphatase, placental type, sequence (P05187 whole entry): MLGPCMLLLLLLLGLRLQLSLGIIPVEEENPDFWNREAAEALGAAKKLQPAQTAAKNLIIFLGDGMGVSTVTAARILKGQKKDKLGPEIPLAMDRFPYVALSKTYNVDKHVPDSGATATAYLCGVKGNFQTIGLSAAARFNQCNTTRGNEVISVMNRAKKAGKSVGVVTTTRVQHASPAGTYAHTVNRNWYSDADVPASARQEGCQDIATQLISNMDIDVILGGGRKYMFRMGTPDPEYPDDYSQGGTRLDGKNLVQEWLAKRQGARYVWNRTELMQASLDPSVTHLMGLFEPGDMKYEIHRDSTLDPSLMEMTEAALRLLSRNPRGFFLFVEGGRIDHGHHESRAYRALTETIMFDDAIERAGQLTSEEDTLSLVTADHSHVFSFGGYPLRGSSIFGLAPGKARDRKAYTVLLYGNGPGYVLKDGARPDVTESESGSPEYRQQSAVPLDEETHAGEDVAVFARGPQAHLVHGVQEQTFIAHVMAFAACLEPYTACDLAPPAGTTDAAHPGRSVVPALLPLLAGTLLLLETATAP

Glyceraldehyde-3-phosphate dehydrogenase, sequence (P04406 whole entry): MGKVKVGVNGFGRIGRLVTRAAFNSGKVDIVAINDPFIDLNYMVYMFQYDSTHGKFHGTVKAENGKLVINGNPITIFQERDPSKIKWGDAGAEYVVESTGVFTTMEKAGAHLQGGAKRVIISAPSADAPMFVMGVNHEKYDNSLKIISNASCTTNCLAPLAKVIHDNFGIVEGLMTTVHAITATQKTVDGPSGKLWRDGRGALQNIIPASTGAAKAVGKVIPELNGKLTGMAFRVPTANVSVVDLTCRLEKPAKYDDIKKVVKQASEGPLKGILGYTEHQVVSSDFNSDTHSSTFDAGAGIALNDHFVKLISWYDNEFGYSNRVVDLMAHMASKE
Nuclear receptor subfamily 0 group B member 1, sequence (P51843 whole entry): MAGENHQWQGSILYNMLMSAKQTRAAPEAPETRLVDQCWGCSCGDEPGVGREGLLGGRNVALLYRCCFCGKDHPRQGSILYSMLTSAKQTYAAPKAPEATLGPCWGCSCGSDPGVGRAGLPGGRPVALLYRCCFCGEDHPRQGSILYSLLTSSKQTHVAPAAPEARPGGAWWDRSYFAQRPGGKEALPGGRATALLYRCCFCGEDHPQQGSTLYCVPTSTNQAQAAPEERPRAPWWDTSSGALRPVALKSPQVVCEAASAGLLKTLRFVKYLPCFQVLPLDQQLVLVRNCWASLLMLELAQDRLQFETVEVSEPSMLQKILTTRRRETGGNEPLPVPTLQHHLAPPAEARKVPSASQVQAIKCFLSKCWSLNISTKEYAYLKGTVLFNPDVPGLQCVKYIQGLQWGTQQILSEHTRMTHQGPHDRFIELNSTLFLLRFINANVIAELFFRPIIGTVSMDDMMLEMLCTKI
Dual specificity protein phosphatase 3, sequence (P51452 whole entry): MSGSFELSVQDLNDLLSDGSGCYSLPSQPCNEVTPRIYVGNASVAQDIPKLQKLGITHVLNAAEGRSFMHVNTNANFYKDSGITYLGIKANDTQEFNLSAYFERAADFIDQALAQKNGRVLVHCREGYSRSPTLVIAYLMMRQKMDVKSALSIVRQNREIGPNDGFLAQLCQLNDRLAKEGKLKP
G-protein coupled receptor 55, sequence (Q9Y2T6 whole entry): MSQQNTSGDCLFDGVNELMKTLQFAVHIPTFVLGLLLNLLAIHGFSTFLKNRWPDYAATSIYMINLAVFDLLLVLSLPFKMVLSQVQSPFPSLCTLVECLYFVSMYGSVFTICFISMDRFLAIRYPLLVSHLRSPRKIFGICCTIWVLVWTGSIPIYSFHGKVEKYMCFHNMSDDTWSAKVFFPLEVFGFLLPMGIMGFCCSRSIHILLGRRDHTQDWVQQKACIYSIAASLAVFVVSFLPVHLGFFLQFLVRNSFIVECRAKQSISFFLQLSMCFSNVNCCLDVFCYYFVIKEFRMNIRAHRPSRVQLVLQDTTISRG

Structure (SMILES): Clc1ncnc2scc(C3COc4ccccc4O3)c12 (stereo not given)
- EC50 [1]: 21.4 µM (active)
- EC50 [2]: 3.97 µM (active)
- AC50 [3]: 7.16 µM (active)
- IC50 [4]: 3.38 µM (active)

Structure (SMILES): Cc1ccn2c(c1)nc(=S)n2C(=O)c1ccccc1
- IC50 [5]: 94.9 µM (active)
- AC50 [6]: 0.814 µM (active)
- IC50 [7]: > 0.0926 µM (active)
- IC50 [8]: 72.3 µM (active)
- IC50 [9]: 46.5 µM (active)
- IC50 [10]: 4.09 µM (active)
- IC50 [11]: > 67.5 µM (inactive)

Structure (SMILES): O=S(=O)(c1ccc(NC(=S)N2CCN(Cc3ccc4c(c3)OCO4)CC2)cc1)N1CCOCC1
- IC50 [12]: 79.6 µM (active)
- IC50 [13]: > 100 µM (inactive)

Structure (SMILES): O=C(c1cc(-c2ccc(Cl)cc2Cl)n[nH]1)N1CCCCCC1
- IC50 [14]: > 100 µM (not active)
- IC50 [15]: > 100 µM (inactive)
